The results in this text go back to US9533023B2, “EIF4E binding peptides” (Agency for Science, Technology and Research, priority 2010, dated 2017).

Square brackets hold non-standard residues; d marks the D form. Ends that are not written are not given here. Ac5c = NC1(C(=O)O)CCCC1; Aib = CC(C)(N)C(=O)O

One assay deals with T1, eIF4E (Homo sapiens, UniProt P06730).
T1 construct: Full length human eIF4E was expressed and purified; made in house
Put plainly: Fluorescence-based thermal stability (thermal shift) assay, FTS. The conditions noted are these: for eIF4E binding / Tm effect in FTS assay: 10 μM eIF4E, 100 μM peptide. The class given is binding. The source says: Full length human eIF4E was expressed and purified as described in Brown, C.
A fluorescence based thermal shift assay was used to screen and rank the rationally designed eIF4E binding derivative peptides. The fluorescent dye Sypro Red was used to monitor thermal denaturation of eIF4E. Binding of the dye molecule to eIF4E, as it unfolds due to thermal denaturation, results in a sharp increase in the fluorescence intensity. The midpoint of this transition is termed the Tm. The thermal shift assay was conducted in the iCycler Real Time Detection System (Bio-Rad, Hercules, Calif.). The system contains a heating/cooling device for accurate temperature control and a charge-coupled device (CCD) detector for simultaneous imaging of the fluorescence changes in the wells of the microplate. […] The final protein concentration was 10 μM. Protein samples were incubated with derivative peptides at a concentration of a 100 μM. The plate was heated from 20 to 90° C. with a heating rate of 1° C./min.
where Ft is the fluorescence intensity at temperature T; Tm is the midpoint temperature of the protein-unfolding transition, Fpre and Fpost are the pretransitional and posttransitional fluorescence intensities, respectively, R is the gas constant, ΔHu is the enthalpy of protein unfolding, and ΔCpu is the heat capacity change on protein unfolding. In the absence of ligand, Tm=T0, ΔCpu=ΔC^T0pu, and ΔHu=ΔH^T0u.
To calculate the ligand-binding affinity at Tm for the derivative eIF4E binding peptides, Eq. (2) was used:
To compare binding affinities for the derivative peptides to eIF4E calculated from the thermal shift data, the binding affinity at temperature T (KL(T))) must be calculated. KL(T) can be calculated from KL(Tm) using Eq. (3A): […]
where KL(T) is the ligand association constant at temperature T, and ΔHL(T) is the van't Hoff enthalpy of binding at temperature T. The value of ΔHL(T) was taken to be 5 kcal/mol.

For assay [1], the system named is MCF-7 5′UTR_MYC_Gaussia reporter cell line. Kind of assay: Cap-dependent translation cell-based assay (Gaussia luciferase). As to conditions: 6 hours.
Protocol: To determine the efficacy of these peptides, a cell-based system to assay changes in cap-dependent translation was designed. […] A reporter line derived from the MCF-7 cell line that stably expresses the 5′UTR_MYC_Gaussia reporter was generated. The robustness of this model system was determined using rapamycin, which inhibits cap-dependent translation by inhibiting mTOR from phosphorylating 4EBPs.
MCF-7 (5′UTR_MYC_Gaussia) cells were cultured in DMEM with 10% FCS. Twenty thousand cells were then seeded per well in 48-wells plates in DMEM serum-free media overnight at 37° C. […] Cells were then cultured in media containing 10% FCS with Rapamycin for 24 hrs and at concentrations of 100 nM, 10 nM, 1 nM, 0.1 nM. Gaussia-Luc activities in cells were measured using Gaussia Luciferase Assay Kit (NEB) with SpectraMax M5 (molecular Devices).
Assay [2] concerns MCF-7 (5′UTR_MYC_Gaussia) cells. Put plainly: Propidium iodide staining and FACS analysis. The class given is cell-based. The conditions noted are these: 48 hrs. Here is the method:
MCF-7 (5′UTR_MYC_Gaussia) cells were cultured in DMEM with 10% FCS. Two hundred fifty thousand cells were then seeded per well in 6-wells plates containing DMEM serum-free media overnight at 37° C. Before overnight incubation, cells were incubated at room temperature for 30 mins. […] A 1% DMSO and a PBS mock treatment was also carried out. Cells were harvested and fixed in 65% ethanol in PBS and incubated at 4° C. for 2 hrs. Cells were spun down and resuspended with Propidium iodide staining solution containing Rnase A. Cells were analyzed using LSR II (BD).

A further assay has as its system MCF-7 cells. Kind of assay: Annexin staining, flow cytometry. The class given is cell-based. The conditions noted are these: 30 μM, 48 hours. Here is the method: MCF-7 cells were cultured in DMEM with 10% FCS. Two hundred fifty thousand cells were then seeded per well in 6-wells plates containing DMEM serum-free media overnight at 37° C. […] A mock PBS treatment was also included. Cells were harvested, washed in PBS and spun down at 200 g for 5 mins. Cell pellets were resuspended in Annexin-VFLUOS labeling solution from Roche and incubated for 10-15 min at 15-25° C. Cells were then analyzed using LSR II (BD).

Assay [3] deals with endogenous c-myc in MCF-7 cells. Put plainly: Western blot of endogenous c-myc. The class given is cell-based. The conditions noted are these: 15 μM peptide, 6 hours, vs PBS. Here is the method: MCF-7 cells were cultured in DMEM with 10% FCS. Three hundred fifty thousand MCF-7 cells were then seeded per well in 6-wells plates containing DMEM serum-free media overnight at 37° C. […] A mock PBS treatment was also included. Cells were harvested at 6 hrs and lysed in RIPA buffer. Protein concentration was determined using a Lowry Assay kit (Bio-rad). Samples were loaded at 30 ug and blotted against monoclonal antibody c-myc (Sigma Aldrich #M4439). B-actin was blotted for as a loading control.

Assay [4] deals with MCF-7 (5′UTR_MYC_Gaussia) cells. Put plainly: WST-1 assay (cell viability). The class given is cell-based. As to conditions: 30 μM, 48 hours after treatment. Here is the method:
MCF-7 (5′UTR_MYC_Gaussia) cells were cultured in DMEM with 10% FCS. Twenty thousand cells were then seeded per well in 48-wells plates in DMEM serum-free media overnight at 37° C. Before overnight incubation, cells were incubated at room temperature for 30 mins. […] After 48 hrs of treatment, MCF-7 cells were incubated with Cell Proliferation Reagent WST-1(Roche) for 30 mins at 37° C. Absorbances of cell media were then read at 450 nm with SpectraMax M5.

T1 sequence (P06730 whole entry): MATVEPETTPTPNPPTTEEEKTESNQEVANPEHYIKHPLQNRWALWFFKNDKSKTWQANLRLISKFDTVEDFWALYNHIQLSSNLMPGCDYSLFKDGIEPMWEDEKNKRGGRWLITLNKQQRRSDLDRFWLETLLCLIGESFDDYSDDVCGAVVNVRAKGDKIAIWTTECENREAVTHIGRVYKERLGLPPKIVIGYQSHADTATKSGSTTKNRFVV

On to “SEQ ID NO: 29: Tr2_AIB3_A5C with alanine at position 625 (YAREFLL[Ac5c]FQF; not fully specified (C-terminus))”, for which the “eIF4E binding / Tm effect in FTS assay” value with eIF4E is on record as “no significant increase or decrease in potency”.

In the case of `CC(C)C[C@H](NC(=O)[C@H](Cc1ccccc1)NC(=O)[C@H](CCC(=O)O)NC(=O)[C@H](CCCNC(=N)N)NC(=O)[C@H](CC(=O)O)NC(=O)[C@@H](N)Cc1ccc(O)cc1)C(=O)N[C@@H](CC(C)C)C(=O)NC1(C(=O)N[C@@H](Cc2ccccc2)C(=O)N[C@@H](CCC(N)=O)C(=O)N[C@@H](Cc2ccccc2)C(=O)O)CCCC1` [Tr2_AIB3_A5C, YDREFLL5FQF], the “eIF4E binding / Tm effect in FTS assay” value on eIF4E is given as “significantly increased”.

As to KRYDRE*LL5FQF [AC13], the “inhibition of cap-dependent translation (luciferase output)” value (from here on “inhibition of cap-dependent translation”) in assay [1] (non-TAT peptides, 400 μM) is “noticeable drop in activity”. Besides, on eIF4E (difference vs AC14), the “drop in thermal shift from AC14 to AC13” value was about 2.1 °C.

For the compound “TAT_eIF4G1_Cntrl: control peptide equivalent to TAT_eIF4G1 (YGRKKRRQRRRGTKKRADREFAAGFQF; TAT_eIF4G1_Cntrl)”, the “cell cycle populations (sub G1, G1, S, G2), words” value in assay [2] (TAT fused peptides 30 μM, vs PBS mock) is recorded as “no substantive differences”. Besides, the “annexin staining of cells (apoptosis)” value in the assay on MCF-7 cells is recorded as “few cells that could be stained”. Moreover, the endogenous c-myc expression entry in assay [3] is “identical”.

Take GTKKRYDRE*LL5FQF [GT_eIF4G1_me5]: the “inhibition of cap-dependent translation” value in assay [1] (100 μM and 200 μM) is “some biological activity in a dose responsive manner”; in assay [1] (non-TAT peptides, 400 μM), “significant decrease in luciferase output”. Moreover, the “cell cycle populations (sub G1, G1, S, G2), words” value in assay [2] (non TAT peptides 400 μM, vs DMSO control) is listed as “significant increase in the sub G1 population”. The “WST-1 assay, difference versus control peptide” value in assay [4] is recorded as “marginally significant”.

In the case of “Tr2_AIB1: Tr2 peptide with D625 replaced by aminoisobutyric acid (Aib) (Y[Aib]REFLLGFQF)”, the “eIF4E binding / Tm effect in FTS assay” value in the assay with eIF4E is recorded as “severely attenuated peptide binding”.

Take “Tr2_AIB2: Tr2 peptide with E627 replaced by Aib (YDR[Aib]FLLGFQF)”: the “eIF4E binding / Tm effect in FTS assay” value with eIF4E was “abolished measurable peptide binding”.

Take “GT_eIF4G1: eIF4G1 14mer with N-terminal GT linker, no TAT (GTKKRYDREFLLGFQF; not fully specified (C-terminus))”: the “luciferase activity, difference versus control peptide” value in assay [1] (30 μM) is given as “no significant difference”. Moreover, in assay [4], the “WST-1 assay, difference versus control peptide” value is given as “not significant”.

In the case of YGRKKRRQRRR [TAT, reference compound], in assay [1] (TAT peptides, up to 100 μM), the “inhibition of cap-dependent translation” value is “not inhibited by TAT alone with only a slight decrease at 100 μM”. The “annexin staining of cells (apoptosis)” value with MCF-7 cells is on record as “few cells that could be stained”. Moreover, the “eIF4E binding / Tm effect in FTS assay” value with eIF4E was “no binding”. Besides, in assay [3], the endogenous c-myc expression entry is reported as “identical”.

For the compound “Tr2_AIB4: Tr2 peptide with Q633 replaced by Aib (YDREFLLGF[Aib]F)”, the “eIF4E binding / Tm effect in FTS assay” value with eIF4E was “severely attenuated peptide binding”.

For the compound “SEQ ID NO: 20: 11mer control peptide with the conserved tyrosine mutated to alanine (ADREFLLGFQF; Control) [reference compound]”, the “eIF4E binding / Tm effect in FTS assay” value with eIF4E is recorded as “all eIF4E binding is lost”.

As for “SEQ ID NO: 31: Tr2_AIB3_A5C with alanine at position 627 (YDRAFLL[Ac5c]FQF; not fully specified (C-terminus))”, the “eIF4E binding / Tm effect in FTS assay” value with eIF4E was “no significant increase or decrease in potency”.

On to “Tr2_AIB3: Tr2 peptide with G631 replaced by Aib (YDREFLLXFQF; Aib at position 631; Tr2_AIB3)”, for which, in the assay with eIF4E, the “eIF4E binding / Tm effect in FTS assay” value is reported as “increased the Tm”.
